Data from patent US9512059B2, “Killing of bed bugs” (BEDOUKIAN RESEARCH, INC., priority 2012, dated 2016).

Test system: bed bugs
Test: forced exposure toxicity test on treated filter paper circles
Format: in vivo, Cimex species
Conditions: compound diluted 5% in acetone, bed bug mortality at 24 hours
Description: Toxicity of compounds of structure (I) was determined by forced exposure testing under the following protocol. Five filter paper circles were laid on a flat surface and treated with the test compounds. Five replicates of five bed bugs were released onto each of the treated paper circles. Petri dish bottoms with circular openings were placed over the treated paper circles and served as the exposure arenas. The sides of the Petri dish bottoms were also painted with Fluon to prevent the bed bugs from climbing the sides. The bed bugs were thus confined to the treated paper circles for the duration of the test. Observations were made for mortality of the bed bugs at 24 hours.

| Structure (SMILES) | Mortality @ 24 hours [%] |
| --- | --- |
| CCCCC1CC(=O)C=C(C)C1 (centres unmarked) [3-Methyl-5-Butyl-2-Cyclohexen-1-one] | 50 |
| CCC1CC(=O)C=C(C)C1 (centres unmarked) [3-Methyl-5-Ethyl-2-Cyclohexenone] | 78 |
| CC1=CC(O)CC(CC(C)C)C1 (centres unmarked) [3-Methyl-5-Isobutyl-2-cyclohexenol] | 10 |
| CCCC1CC(C)=CC(O)C1 (centres unmarked) [3-Methyl-5-propyl-2-cyclohexenol] | 60 |
| CCCC1CC(=O)C=C(C)C1 (centres unmarked) [3-Methyl-5-propyl-2-cyclohexenone] | 100 |
